According to patent publication US8765786B2, “1-substituted indazole derivative” (Dainippon Sumitomo Pharma Co., Ltd., priority 2012, dated 2014):

Biological target: T1, human α7 nAChR (Homo sapiens, UniProt P36544)
T1 construct: expressed in transfected cells; host or cells: GH4C1 cells derived from rat pituitary (ATCC CCL-82.2)
Assay: Evaluation of PAM activity with human α7 nACh receptor stably expressing cells (aequorin luminescence, FDSS7000)
Assay type: cell-based
Conditions: for activity at 10 µM / α7PAM (%) @ 10 μmol/L: test compound 10 μmol/L, ACh added at EC20, ratio of RLU (Max-Min) of test wells to control wells; for activity at 10 µM: read-out: α7PAM (%) @ 10 μmol/L
In short: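 Rat pituitary GH4C1 cells stably expressing human α7 nAChR and aequorin, loaded 4 h at room temperature with 4 μmol/L substrate, in Hanks/20 mM HEPES pH 7.4. After compound then ACh addition, 465 nm luminescence recorded 138 s; PAM activity is RLU (Max-Min) ratio to control wells.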

T1 sequence (P36544 23-502): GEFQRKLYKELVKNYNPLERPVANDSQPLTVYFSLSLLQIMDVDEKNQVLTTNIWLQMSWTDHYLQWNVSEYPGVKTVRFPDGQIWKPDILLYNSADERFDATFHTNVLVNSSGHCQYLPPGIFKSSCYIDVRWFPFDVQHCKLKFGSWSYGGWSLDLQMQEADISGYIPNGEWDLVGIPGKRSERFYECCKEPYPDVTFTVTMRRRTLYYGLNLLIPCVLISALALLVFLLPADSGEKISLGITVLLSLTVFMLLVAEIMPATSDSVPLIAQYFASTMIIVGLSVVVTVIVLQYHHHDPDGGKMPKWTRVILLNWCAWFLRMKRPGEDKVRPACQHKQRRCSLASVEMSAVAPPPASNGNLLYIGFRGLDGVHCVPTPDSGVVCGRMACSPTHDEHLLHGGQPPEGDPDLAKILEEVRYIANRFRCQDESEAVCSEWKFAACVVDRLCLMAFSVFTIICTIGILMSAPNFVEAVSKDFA

CC(C)Oc1ccc2c(cnn2C2CCN(C(=O)NC3CCC(F)(F)CC3)CC2)c1 [Example 46, N-(4,4-difluorocyclohexyl)-4-(5-isopropoxy-1H-indazol-1-yl)piperidine-1-carboxamide]
activity at 10 µM: 544%

[2H]C([2H])([2H])c1ccc2c(cnn2C2CCN(C(=O)N[C@H]3CC[C@H](OC)CC3)CC2)c1 [Example 144, N-(trans-4-methoxycyclohexyl)-4-[5-(^2H3)methyl-1H-indazol-1-yl]piperidine-1-carboxamide]
activity at 10 µM: 637%

COCC1CCC(NC(=O)N2CCC(n3ncc4cc(C5CC5)ccc43)CC2)CC1 (centres unmarked) [Example 221]
α7PAM (%) @ 10 μmol/L: 1942%

CCc1ccc2c(c1)c(OC(C)C)nn2C1CCN(C(=O)NC2CCCCC2)CC1 [Example 153]
α7PAM (%) @ 10 μmol/L: 386%

Cc1ccc2c(cnn2C2CCN(C(=O)N[C@@H]3CCCC3(F)F)CC2)c1 [Example 81, (R) —N-(2,2-difluorocyclopentyl)-4-(5-methyl-1H-indazol-1-yl)piperidine-1-carboxamide]
activity at 10 µM: 819%

COC1CCC(NC(=O)N2CCC(n3ncc4cc(C)ccc43)CC2)CC1 (centres unmarked) [Example 91]
α7PAM (%) @ 10 μmol/L: 217%

CCc1cccc2c1cnn2C1CCN(C(=O)C2CCC(F)(F)CC2)CC1 [Example 139]
α7PAM (%) @ 10 μmol/L: 1018%

CCc1ccc2c(c1)c(OC)nn2C1CCN(C(=O)NC2CCC(F)(F)CC2)CC1 [Example 149]
α7PAM (%) @ 10 μmol/L: 1053%

O=C(NC1CCCC1)N1CCC(n2ncc3cc(OC(F)(F)F)ccc32)CC1 [Example 229]
α7PAM (%) @ 10 μmol/L: 689%

COc1cccc2c1cnn2C1CCN(C(=O)NC2CCC(F)(F)CC2)CC1 [Example 182]
α7PAM (%) @ 10 μmol/L: 742%

CC1(C)CC(NC(=O)N2CCC(n3ncc4cc(C5CC5)ccc43)CC2)CCO1 (centres unmarked) [Example 210]
α7PAM (%) @ 10 μmol/L: 209%

O=C(NC1CCC(F)(F)CC1)N1CCC(n2ncc3ccccc32)CC1 [Example 38]
α7PAM (%) @ 10 μmol/L: 1101%

[2H]C([2H])([2H])O[C@H]1CC[C@H](NC(=O)N2CCC(n3ncc4c(CC)cccc43)CC2)CC1 [Example 307]
α7PAM (%) @ 10 μmol/L: 464%

CO[C@H]1CC[C@H](NC(=O)N2CCC(n3ncc4cc(OC(F)(F)F)ccc43)CC2)CC1 [Example 219, N-(trans-4-methoxycyclohexyl)-4-[5-(trifluoromethoxy)-1H-indazol-1-yl]piperidine-1-carboxamide]
activity at 10 µM: 238%

[2H]C([2H])([2H])O[C@H]1CC[C@H](NC(=O)N2CCC(n3ncc4cc(CC)ccc43)CC2)CC1 [Example 325]
α7PAM (%) @ 10 μmol/L: 997%

O=C(NC1CCC1)N1CCC(n2ncc3cc(OC(F)(F)F)ccc32)CC1 [Example 299]
α7PAM (%) @ 10 μmol/L: 302%

CCOc1nn(C2CCN(C(=O)NC3CCCC3)CC2)c2ccc(CC)cc12 [Example 56]
α7PAM (%) @ 10 μmol/L: 676%

[2H]C([2H])([2H])Oc1ccc2c(cnn2C2CCN(C(=O)NC3CCCCC3)CC2)c1 [Example 324]
α7PAM (%) @ 10 μmol/L: 1352%

COCc1c(C2CC2)ccc2c1cnn2C1CCN(C(=O)NC2CCC(F)(F)CC2)CC1 [Example 215]
α7PAM (%) @ 10 μmol/L: 851%

COc1ccc2c(cnn2C2CCN(C(=O)NC3CCCCC3(F)F)CC2)c1 (centres unmarked) [Example 86]
α7PAM (%) @ 10 μmol/L: 1481%

CO[C@H]1CC[C@H](NC(=O)N2CCC(n3ncc4c(C)c(OC(F)F)ccc43)CC2)CC1 [Example 293]
α7PAM (%) @ 10 μmol/L: 525%

COCc1nn(C2CCN(C(=O)NC3CCCC3)CC2)c2ccc(C)cc12 [Example 67]
α7PAM (%) @ 10 μmol/L: 436%

CO[C@H]1CC[C@H](NC(=O)N2CCC(n3ncc4c(C)c(C)ccc43)CC2)CC1 [Example 225]
α7PAM (%) @ 10 μmol/L: 480%

Cc1cccc2c1cnn2C1CCN(C(=O)NC2CCC(OC(F)F)CC2)CC1 (centres unmarked) [Example 97]
α7PAM (%) @ 10 μmol/L: 117%

CCc1ccc2c(c1)c(OC(C)C)nn2C1CCN(C(=O)NC2CCCC2)CC1 [Example 58]
α7PAM (%) @ 10 μmol/L: 577%

CCc1ccc2c(cnn2C2CCN(C(=O)C3CCC(OC)CC3)CC2)c1 (centres unmarked) [Example 117]
α7PAM (%) @ 10 μmol/L: 209%

CCc1ccc2c(cnn2[C@H]2CC[C@@H](NC(=O)[C@H]3CC[C@H](OC)CC3)CC2)c1 [Example 122]
α7PAM (%) @ 10 μmol/L: 410%

CCOc1ccc2c(cnn2C2CCN(C(=O)c3ccc(C(F)(F)F)cn3)CC2)c1 [Example 132]
α7PAM (%) @ 10 μmol/L: 361%

Cc1ccc2c(cnn2C2CCN(C(=O)N[C@H]3CC[C@H](OC(F)F)CC3)CC2)c1 [Example 154]
α7PAM (%) @ 10 μmol/L: 811%

CCOc1ccc2c(cnn2C2CCN(C(=O)NC3CCC(COC)CC3)CC2)c1 (centres unmarked) [Example 234]
α7PAM (%) @ 10 μmol/L: 824%

O=C(NC1CCC(F)(F)CC1)N1CCC(n2ncc3cc(C(F)(F)F)ccc32)CC1 [Example 164]
α7PAM (%) @ 10 μmol/L: 979%

COCCCc1ccc2c(cnn2C2CCN(C(=O)N[C@H]3CC[C@H](OC)CC3)CC2)c1 [Example 32]
α7PAM (%) @ 10 μmol/L: 430%

COc1ccc2c(c1)c(C1CCOCC1)nn2C1CCN(C(=O)N[C@H]2CC[C@H](OC)CC2)CC1 [Example 262]
α7PAM (%) @ 10 μmol/L: 348%

O=C(NC1CCC(F)(F)CC1)N1CCC(n2ncc3cc(N4CCCC4)ccc32)CC1 [Example 224]
α7PAM (%) @ 10 μmol/L: 286%

CCOc1ccc2c(cnn2C2CCN(C(=O)NC3CCCCC3)CC2)c1 [Example 18, N-cyclohexyl-4-(5-ethoxy-1H-indazol-1-yl)piperidine-1-carboxamide]
PAM activity for α7 nAChR (result in words, ratio of RLU (Max-Min) to control wells, ACh EC20): stronger PAM activity than others

CCc1ccc2c(cnn2C2CCCN(C(=O)NC3CCC(F)(F)CC3)CC2)c1 (centres unmarked) [Example 73]
α7PAM (%) @ 10 μmol/L: 453%

CCc1ccc2c(c1)c(OC(C)C)nn2C1CCN(C(=O)NC2CCC(F)(F)CC2)CC1 [Example 62]
α7PAM (%) @ 10 μmol/L: 653%

CCc1ccc2c(cnn2C2CCN(C(=O)C3CCC(F)(F)CC3)CC2)c1 [Example 113]
α7PAM (%) @ 10 μmol/L: 654%

CCc1ccc2c(cnn2[C@H]2CC[C@@H](C(=O)NC3CCCCC3)CC2)c1 [Example 127]
α7PAM (%) @ 10 μmol/L: 806%

CCc1cccc2c1cnn2C1CCN(C(=O)N[C@H]2CC[C@H](OC(F)F)CC2)CC1 [Example 159]
α7PAM (%) @ 10 μmol/L: 187%

O=C(NCc1ccccc1)N1CCC(n2ncc3cc(C4CC4)ccc32)CC1 [Example 194]
α7PAM (%) @ 10 μmol/L: 278%

O=C(NC1CCCCC1)N1CCC(n2ncc3cc(C4CC4)ccc32)CC1 [Example 199]
α7PAM (%) @ 10 μmol/L: 1497%

COCc1cccc2c1cnn2C1CCN(C(=O)NC2CCCCC2)CC1 [Example 165]
α7PAM (%) @ 10 μmol/L: 442%

[2H]C([2H])([2H])O[C@H]1CC[C@H](NC(=O)N2CCC(n3ncc4c(OC)c(CC)ccc43)CC2)CC1 [Example 318]
α7PAM (%) @ 10 μmol/L: 1084%

CCOc1c(C)ccc2c1cnn2C1CCN(C(=O)NC2CCOCC2)CC1 [Example 273]
α7PAM (%) @ 10 μmol/L: 341%

COC1CCC(NC(=O)N2CCC(n3ncc4cc(F)ccc43)CC2)CC1 (centres unmarked) [Example 29]
α7PAM (%) @ 10 μmol/L: 206%

COC(C)Cc1ccc2c(cnn2C2CCN(C(=O)N[C@H]3CC[C@H](OC)CC3)CC2)c1 (some centres unmarked) [Example 247]
α7PAM (%) @ 10 μmol/L: 353%

CC(C)(C)NC(=O)N1CCC(n2ncc3cc(C4CC4)ccc32)CC1 [Example 172]
α7PAM (%) @ 10 μmol/L: 541%

O=C(NC1CCC(F)(F)CC1)N1CCC(n2ncc3cc(-c4ccc(F)cc4)ccc32)CC1 [Example 70, N-(4,4-difluorocyclohexyl)-4-(5-(4-fluorophenyl)-1H-indazol-1-yl)piperidine-1-carboxamide]
activity at 10 µM: 719%

O=C(C1CCC(F)(F)CC1)N1CCC(n2ncc3cc(F)ccc32)CC1 [Example 134]
α7PAM (%) @ 10 μmol/L: 237%
